From patent US9464084B2, “P2X7 modulators” (Janssen Pharmaceutica NV, priority 2013, dated 2016) come the findings set out here.

The target in the assay is P2X7 (Homo sapiens (Human), UniProt Q99572). In words: P2X7 antagonism in human PBMCs (LPS + Bz-ATP induced IL-1β release, ELISA).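 On all read-outs here: PBMCs from donor human blood, with a further 1.5 h incubation of the cells in the assay.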 The note with it: LPS 30 ng/ml, Bz-ATP 0.5 mM; for PBMC 10 μM (% control): compound 10 μM; for PBMC 1 μM (% control): compound 1 μM. The class given is cell-based.
Sequence of P2X7 (Q99572 whole entry): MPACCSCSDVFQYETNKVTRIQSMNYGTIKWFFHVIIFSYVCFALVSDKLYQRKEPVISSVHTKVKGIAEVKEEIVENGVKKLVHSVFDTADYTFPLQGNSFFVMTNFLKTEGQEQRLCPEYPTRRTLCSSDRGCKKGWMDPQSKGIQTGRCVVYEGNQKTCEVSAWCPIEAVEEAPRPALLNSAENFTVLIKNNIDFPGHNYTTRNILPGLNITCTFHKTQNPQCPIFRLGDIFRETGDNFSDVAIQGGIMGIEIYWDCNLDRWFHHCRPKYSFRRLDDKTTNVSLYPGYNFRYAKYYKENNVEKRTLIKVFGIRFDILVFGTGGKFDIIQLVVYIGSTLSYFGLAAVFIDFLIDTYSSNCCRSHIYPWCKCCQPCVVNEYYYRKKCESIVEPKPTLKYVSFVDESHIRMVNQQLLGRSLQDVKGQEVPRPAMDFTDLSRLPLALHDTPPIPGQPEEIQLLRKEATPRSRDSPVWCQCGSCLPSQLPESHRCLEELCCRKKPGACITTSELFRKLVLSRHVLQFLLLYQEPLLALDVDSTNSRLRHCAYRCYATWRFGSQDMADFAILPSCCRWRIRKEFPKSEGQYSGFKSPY

In the case of `Cc1cccnc1-n1nnc2c1CCN(C(=O)c1cccc(C(F)(F)F)c1Cl)[C@@H]2C` (single isomer, unassigned) [Example 291, (R*)-(2-chloro-3-(trifluoromethyl)phenyl)(4-methyl-1-(3-methylpyridin-2-yl)-6,7-dihydro-1H-[1,2,3]triazolo[4,5-c]pyridin-5(4H)-yl)methanone], the “PBMC 10 μM (% control)” value is −7.1 % control.
`Cc1cccnc1-n1nnc2c1CCN(C(=O)c1cccc(C(F)(F)F)c1Cl)[C@H]2C` (single isomer, unassigned) [Example 292, (S*)-(2-chloro-3-(trifluoromethyl)phenyl)(4-methyl-1-(3-methylpyridin-2-yl)-6,7-dihydro-1H-[1,2,3]triazolo[4,5-c]pyridin-5(4H)-yl)methanone]: the “PBMC 10 μM (% control)” value stood at 36.7 % control.
On the same count and under the same terms, the figure for `Cc1nc(-n2nnc3c2CCN(C(=O)c2cccc(C(F)(F)F)c2Cl)C3C)ncc1F` (single isomer, unassigned) [Example 306, (S*)-(2-chloro-3-(trifluoromethyl)phenyl)(1-(5-fluoro-4-methylpyrimidin-2-yl)-4-methyl-6,7-dihydro-1H-[1,2,3]triazolo[4,5-c]pyridin-5(4H)-yl)methanone] is 2.5 % control; for `C[C@H]1c2ncn(-c3ccc(F)cn3)c2CCN1C(=O)c1cccc(C(F)(F)F)c1Cl` (stereo in doubt) [Example 41] it is 40.5 % control.
As to `O=C(c1cccc(Cl)c1Cl)N1CCc2c(ncn2-c2ccccc2)C1` [Example 3, (2,3-Dichlorophenyl)(1-phenyl-6,7-dihydro-1H-imidazo[4,5-c]pyridin-5(4H)-yl)methanone], the “PBMC 1 μM (% control)” value was 23.0 % control.
Still for that read-out and setting: the same measure for `O=C(c1cccc(C(F)(F)F)c1Cl)N1CCc2c(ncn2-c2cc(F)cc(F)c2)C1` [Example 7, (2-Chloro-3-(trifluoromethyl)phenyl)(1-(3,5-difluorophenyl)-6,7-dihydro-1H-imidazo[4,5-c]pyridin-5(4H)-yl)methanone]: 98.7 % control; for `O=C(c1cccc(C(F)(F)F)c1Cl)N1CCc2ncn(-c3ccccn3)c2C1` [Example 8, (2-Chloro-3-(trifluoromethyl)phenyl)(3-(pyridin-2-yl)-6,7-dihydro-3H-imidazo[4,5-c]pyridin-5(4H)-yl)methanone]: 83.1 % control; for `O=C(c1cccc(Cl)c1Cl)N1CCc2ncn(-c3ccccn3)c2C1` [Example 9, (2,3-Dichlorophenyl)(3-(pyridin-2-yl)-6,7-dihydro-3H-imidazo[4,5-c]pyridin-5(4H)-yl)methanone]: 83.7 % control.
In the case of `O=C(c1cccc(C(F)(F)F)c1Cl)N1CCc2ncn(-c3cnccn3)c2C1` [Example 10, (2-Chloro-3-(trifluoromethyl)phenyl)(3-(pyrazin-2-yl)-6,7-dihydro-3H-imidazo[4,5-c]pyridin-5(4H)-yl)methanone], the “PBMC 1 μM (% control)” value is recorded as 76.5 % control.
As for `CC1c2ncn(-c3ccc(F)cn3)c2CCN1C(=O)c1cccc(C(F)(F)F)c1Cl` (stereo not shown) [Example 11, (2-Chloro-3-(trifluoromethyl)phenyl)(1-(5-fluoropyridin-2-yl)-4-methyl-6,7-dihydro-1H-imidazo[4,5-c]pyridin-5(4H)-yl)methanone], the “PBMC 10 μM (% control)” value turned out to be 25.2 % control.
Regarding `CC1c2ncn(-c3ccccc3)c2CCN1C(=O)c1cccc(C(F)(F)F)c1Cl` (stereo not shown) [Example 12, (2-Chloro-3-(trifluoromethyl)phenyl)(4-methyl-1-phenyl-6,7-dihydro-1H-imidazo[4,5-c]pyridin-5(4H)-yl)methanone], the “PBMC 1 μM (% control)” value is 11.2 % control.
The same measure, in the same setting: the figure for `CC1c2ncn(-c3ccccn3)c2CCN1C(=O)c1cccc(C(F)(F)F)c1Cl` (stereo not shown) [Example 17, (2-Chloro-3-(trifluoromethyl)phenyl)(4-methyl-1-(pyridin-2-yl)-6,7-dihydro-1H-imidazo[4,5-c]pyridin-5(4H)-yl)methanone] is 6.5 % control; for `CC1c2ncn(-c3ccc(F)cc3)c2CCN1C(=O)c1cccc(C(F)(F)F)c1Cl` (stereo not shown) [Example 18, (2-Chloro-3-(trifluoromethyl)phenyl)(1-(4-fluorophenyl)-4-methyl-6,7-dihydro-1H-imidazo[4,5-c]pyridin-5(4H)-yl)methanone] it is 5.3 % control.
With `CC1c2ncn(-c3ccccn3)c2CCN1C(=O)c1cccc(C(F)(F)F)c1F` (stereo not shown) [Example 19, (2-Fluoro-3-(trifluoromethyl)phenyl)(4-methyl-1-(pyridin-2-yl)-6,7-dihydro-1H-imidazo[4,5-c]pyridin-5(4H)-yl)methanone], the “PBMC 10 μM (% control)” value is given as 11.6 % control.
Regarding `CC1c2ncn(-c3ncc(F)cn3)c2CCN1C(=O)c1cccc(C(F)(F)F)c1Cl` (stereo not shown) [Example 22, (2-Chloro-3-(trifluoromethyl)phenyl)(1-(5-fluoropyrimidin-2-yl)-4-methyl-6,7-dihydro-1H-imidazo[4,5-c]pyridin-5(4H)-yl)methanone], the “PBMC 10 μM (% control)” value was −15.9 % control.
Take `O=C(c1cccc(C(F)(F)F)c1Cl)N1CCc2c(ncn2-c2ccccc2)C1CO` (stereo not shown) [Example 30, (5-{[2-Chloro-3-(trifluoromethyl)phenyl]carbonyl}-1-phenyl-4,5,6,7-tetrahydro-1H-imidazo[4,5-c]pyridin-4-yl)methanol]: the “PBMC 1 μM (% control)” value is 87.0 % control.
The same measure, in the same setting: the same measure for `O=C(O)C1c2ncn(-c3ccccn3)c2CCN1C(=O)c1cccc(C(F)(F)F)c1Cl` (stereo not shown) [Example 33, 5-{[2-Chloro-3-(trifluoromethyl)phenyl]carbonyl}-1-pyridin-2-yl-4,5,6,7-tetrahydro-1H-imidazo[4,5-c]pyridine-4-carboxylic acid]: 100.7 % control.
As for `O=C(c1cccc(C(F)(F)F)c1Cl)N1CCc2[nH]cnc2C1C(F)(F)F` (stereo not shown) [Example 39, 5-{[2-Chloro-3-(trifluoromethyl)phenyl]carbonyl}-4-(trifluoromethyl)-4,5,6,7-tetrahydro-1H-imidazo[4,5-c]pyridine], the “PBMC 10 μM (% control)” value stood at 112.0 % control.
On to `O=C(c1cccc(C(F)(F)F)c1Cl)N1CCc2nc[nH]c2C1` [Example 48, 5-{[2-Chloro-3-(trifluoromethyl)phenyl]carbonyl}-4,5,6,7-tetrahydro-3H-imidazo[4,5-c]pyridine], for which the “PBMC 1 μM (% control)” value amounted to 90.1 % control.
Same read-out and setting: the same measure for `O=C(c1cccc(C(F)(F)F)c1Cl)N1C=Cc2c(ncn2-c2ccccc2)C1` [Example 49, 5-{[2-Chloro-3-(trifluoromethyl)phenyl]carbonyl}-1-phenyl-4,5-dihydro-1H-imidazo[4,5-c]pyridine]: 93.5 % control; for `O=C(c1cccc2c1OC(F)(F)O2)N1CCc2c(ncn2-c2ccccc2)C1` [Example 50, 5-[(2,2-Difluoro-1,3-benzodioxol-4-yl)carbonyl]-1-phenyl-4,5,6,7-tetrahydro-1H-imidazo[4,5-c]pyridine]: 96.0 % control.
Regarding `O=C(c1cccc2c1OCC2)N1CCc2c(ncn2-c2ccccc2)C1` [Example 51, 5-(2,3-Dihydro-1-benzofuran-7-ylcarbonyl)-1-phenyl-4,5,6,7-tetrahydro-1H-imidazo[4,5-c]pyridine], the “PBMC 1 μM (% control)” value is on record as 97.6 % control.
On the same count and under the same terms, the figure for `CC1(C)Cc2cccc(C(=O)N3CCc4c(ncn4-c4ccccc4)C3)c2O1` [Example 52, 5-[(2,2-Dimethyl-2,3-dihydro-1-benzofuran-7-yl)carbonyl]-1-phenyl-4,5,6,7-tetrahydro-1H-imidazo[4,5-c]pyridine] is 98.9 % control.
In the case of `O=C(c1cccc(C(F)(F)F)c1Cl)N1CCc2c(nnn2-c2ncccn2)C1` [Example 65, 5-{[2-Chloro-3-(trifluoromethyl)phenyl]carbonyl}-1-pyrimidin-2-yl-4,5,6,7-tetrahydro-1H-[1,2,3]triazolo[4,5-c]pyridine], the “PBMC 10 μM (% control)” value is on record as 5.8 % control.
As to `CC1c2nnn(-c3cnccn3)c2CCN1C(=O)c1cccc(C(F)(F)F)c1Cl` (stereo not shown) [Example 73, 5-{[2-Chloro-3-(trifluoromethyl)phenyl]carbonyl}-4-methyl-1-pyrazin-2-yl-4,5,6,7-tetrahydro-1H-[1,2,3]triazolo[4,5-c]pyridine], the “PBMC 1 μM (% control)” value turned out to be 4.3 % control.
In the case of `CC1c2nnn(-c3ncccn3)c2CCN1C(=O)c1cccc(C(F)(F)F)c1Cl` (stereo not shown) [Example 80, 5-{[2-Chloro-3-(trifluoromethyl)phenyl]carbonyl}-4-methyl-1-pyrimidin-2-yl-4,5,6,7-tetrahydro-1H-[1,2,3]triazolo[4,5-c]pyridine], the “PBMC 10 μM (% control)” value amounted to 4.6 % control.
Same read-out and setting: the figure for `CC1c2nnn(-c3cc[nH]n3)c2CCN1C(=O)c1cccc(C(F)(F)F)c1Cl` (stereo not shown) [Example 85, 5-{[2-Chloro-3-(trifluoromethyl)phenyl]carbonyl}-4-methyl-1-(1H-pyrazol-3-yl)-4,5,6,7-tetrahydro-1H-[1,2,3]triazolo[4,5-c]pyridine] is 24.7 % control.
`O=C(c1cccc(C(F)(F)F)c1Cl)N1CCc2c(nnn2-c2cnccn2)C1` [Example 91, 5-{[2-Chloro-3-(trifluoromethyl)phenyl]carbonyl}-1-pyrazin-2-yl-4,5,6,7-tetrahydro-1H-[1,2,3]triazolo[4,5-c]pyridine]: the “PBMC 1 μM (% control)” value amounted to 6.1 % control.
As to `O=C(c1cccc(Cl)c1Cl)N1CCc2c(-c3ccccc3)n[nH]c2C1` [Example 100, 6-[(2,3-Dichlorophenyl)carbonyl]-3-phenyl-4,5,6,7-tetrahydro-1H-pyrazolo[3,4-c]pyridine], the “PBMC 1 μM (% control)” value was found to be 9.2 % control.
Turning to `Cn1nc2c(c1-c1ccccc1)CCN(C(=O)c1cccc(Cl)c1Cl)C2` [Example 102, 6-[(2,3-Dichlorophenyl)carbonyl]-2-methyl-3-phenyl-4,5,6,7-tetrahydro-2H-pyrazolo[3,4-c]pyridine], the “PBMC 1 μM (% control)” value is 18.0 % control.
Still for that read-out and setting: the figure for `Cn1nc2c(c1-c1ccc(F)cc1)CCN(C(=O)c1cccc(C(F)(F)F)c1Cl)C2` [Example 105, 6-{[2-Chloro-3-(trifluoromethyl)phenyl]carbonyl}-3-(4-fluorophenyl)-2-methyl-4,5,6,7-tetrahydro-2H-pyrazolo[3,4-c]pyridine] is 51.0 % control.
